Assay results reported in patent US20100184664A1, “OPHTHALMIC COMPOSITIONS USEFUL FOR IMPROVING VISUAL ACUITY” (Allergan, Inc., priority 2008, published 2010).

Key:
[1] = tested on: corneal epithelial cells isolated from the rabbit eye; assay: Trans-epithelial electrical resistance (TEER) of layered air-lift corneal epithelial cultures under hypertonic fluid; assay type: cell-based; details: for TEER (as % of isotonic control) at 22 hours: 2 mM solute in hypertonic fluid (400 mOsmols/kg), 22 hours exposure, isotonic control 100%, hypertonic control 23.3; for % TEER relative to the isotonic control, response to concentration: Example 4, different concentrations, TEER measured from 0 to 24 hours, FIG. 6; for osmoprotective benefit (TEER relative to the hypertonic control), in words: Example 1, 2 mM, 400 mOsmols/kg, 22 hours
Text: In this experiment, corneal epithelial cells were isolated from the rabbit eye and grown under conditions so that they differentiate into a layered “air-lift” culture that includes basal, wing, and squamous cells. As they grow and differentiate, these cultures developed tight junctions between cells that provide the basis for a trans-epithelial electrical resistance (TEER) across the cell layers between the apical and basal surfaces. The TEER value is a sensitive measure of cell growth, differentiation and health.
After 5 days in culture during which the layered structure forms, different culture wells were exposed to hypertonic fluid (400 mOsmols/kg) with or without addition of one of 6 candidate compatible solutes at a low concentration (2 mM). The TEER was then measured after 22 hours of exposure. The TEER value was expressed as a percentage of the TEER value obtained from a similar culture under isotonic (300 mOsmol/kg) conditions.
Example 1 is repeated except that different concentrations of each of the candidate materials are used, and the TEER is measured at various times from 0 to 24 hours.
As in Example 1, the TEER variable is represented as % TEER relative to the isotonic control. […]

[2] = tested on: phosphorylated c-jun N-terminal kinases (p-JNK1 and p-JNK2); assay: Western blot analysis of phosphorylated JNK1 and JNK2 in primary corneal epithelial cultures under hyperosmolar media; assay type: cell-based, human; details: 2 mM; for levels of JNK1 and JNK2 in 300 mOsmols/kg cultures: FIG. 2; for JNK activation (levels of JNK1 and JNK2, Western blot intensity) compared to 400 mOsmols/kg media alone: pre-added 60 minutes, 1 hour, FIGS. 1 and 2
Experimental: (§1) Human corneoscleral tissues, from donors aged 16-59 years were obtained from the Lions Eye Bank of Texas (Houston, Tex.). Corneal epithelial cells were grown from limbal explants. In brief, after carefully removing the central cornea, excess conjunctiva and iris and corneal endothelium, the limbal rim was cut into 12 equal pieces (about 2×2 mm size each). Two of these pieces were placed epithelial side up into each well of 6-well culture plates, and each explant was covered with a drop of fetal bovine serum (FBS) overnight. The explants were then cultured in SHEM medium, which was an 1:1 mixture of Dulbecco modified Eagle medium (DMEM) and Ham F-12 medium containing 5 ng/mL EGF, 5 μg/mL insulin, 5 μg/mL transferrin, 5 ng/mL sodium selenite, 0.5 μg/mL hydrocortisone, 30 ng/mL cholera toxin A, 0.5% DMSO, 50 μg/mL gentamicin, 1.25 μg/mL amphotericin B and 5% FBS, at 37° C. under 5% CO2 and 95% humidity. The medium was renewed every 2-3 days. Epithelial phenotype of these cultures was confirmed by characteristic morphology and immuno-fluorescent staining with cytokeratin antibodies (AE-1/AE-3).
(§2) A series of primary sub-confluent corneal epithelial cultures (grown for 12 to 14 days, about 4-5×10^5 cells/well) were washed three times with […] buffered saline (PBS) and switched to an Earle's Balanced Salt Solution (EBSS, 300 mOsmols/kg) for 24 hours before treatment. The corneal epithelial cells were cultured for 1 hour in an equal volume (2.0 mL/well) of EBSS media or 400 mOsmols/kg media by adding 53 mM NaCl or sucrose, with either L-carnitine inner salt, betaine hydrochloride, erythritol, or xylitol (all at a concentration of 2 mM) that were pre-added 60 minutes before adding NaCl or sucrose. Samples without these osmoprotectants were also prepared and tested.
(§3) The adherent cells were lysed in Beadlyte® Buffer B (included in the Beadlyte® Cell Signaling buffer kit, Upstate Biotechnology, Lake Placid, N.Y.) containing an EDTA-free protease inhibitor cocktail tablet (Roche Applied Science, Indianapolis, Ind.) for 15 minutes. The cell extracts were centrifuged at 12,000×g for 15 minutes at room temperature and the supernatants were stored at −80° C. until they were analyzed by Western blot analysis. The total protein concentrations of the cell extracts were determined using a Micro BCA protein assay kit (Pierce, Rockford, Ill.).
The intensity of each of JNK1 and JNK2 was tested for each of these compositions using Western blot analysis with specific antibodies to each phosphorylated species.
The Western blot analysis was conducted as follows. The protein samples (50 μg per lane) were mixed with 6×SDS reducing sample buffer and boiled for 5 minutes before loading. Proteins were separated by SDS polyacrylamide gel electrophoresis (4-15% Tris-HCl, gradient gels from Bio-Rad, Hercules, Calif.), and transferred electronically to polyvinylidine difluoride (PVDF) membranes (Millipore, Bedford, Mass.). The membranes were blocked with 5% non-fat milk in TTBS (50 mM Tris, pH 7.5, 0.9% NaCl, and 0.1% Tween-20) for 1 hour at room temperature (RT), and then incubated 2 hours at RT with a 1:1000 dilution of rabbit antibody against phospho-p38 MAPK (Cell Signaling, Beverly, Mass.), 1:100 dilution of rabbit antibody against phospho-JNK, or 1:500 dilution of monoclonal antibody against phospho-p44/42 ERK (Santa Cruz Biotechnology, Santa Cruz, Calif.).
After three washings with TTBS, the membranes were incubated for 1 hour at RT with horseradish peroxidase-conjugated secondary antibody goat anti-rabbit IgG (1:2000 dilution, Cell Signaling, Beverly, Mass.), or goat anti-mouse IgG (1:5000 dilution, Pierce, Rockford, Ill.). After washing the membranes four times, the signals were detected with an ECL advance chemiluminescence reagent (Amersham, Piscataway, N.J.) and the images were acquired by a Kodak image station 2000R (Eastman Kodak, New Haven, Conn.). […]

[3] = tested on: phospho-JNK / total JNK; assay: Beadlyte Cell Signaling Assay, phosphorylated:total JNK; assay type: cell-based, human; details: Beadlyte method, FIG. 3
Experimental: as §1, §2
as §3, with “Ill.). […]” for “Ill.).”
(§4) The beads were washed and mixed with biotinylated specific reporter antibodies for phospho-MAPK or total-MAPK, followed by streptavidin-phycoerythrin. The amount of total or phospho-MAPK was then quantified by the Luminex 100™ system (Luminex, Austin, Tex.). Fifty events per bead were read, and the data output obtained from the Bio-Plex Manager software were exported to Microsoft Excel® for further analysis. […]

[4] = tested on: ERK MAP Kinase; assay: Beadlyte Cell Signaling Assay, phospho:total ERK MAP Kinase; assay type: cell-based, human; details: Beadlyte method, FIG. 5
Experimental: as §1, §2
as §3, with “Ill.). […]” for “Ill.).”
as §4

[5] = Component compatibility with stabilized chlorine dioxide preservative; assay type: physicochemical; details: composition including betaine and stabilized chlorine dioxide
Experimental: A composition including betaine and stabilized chlorine dioxide, as a preservative, was tested for component compatibility. […] Thus, betaine is not useful with is certain preservatives, such as stabilized chlorine dioxide. However, betaine may advantageously be employed as a compatible solute in ophthalmic compositions which use other preservative systems, or which are free of preservatives, for example, in single or unit-dose applications.

[6] = tested on: p38 MAP Kinase; assay: Beadlyte Cell Signaling Assay, phospho:total p38 MAP Kinase; assay type: cell-based, human; details: Beadlyte method, FIG. 4
Experimental: Human corneoscleral tissues, from donors aged 16-59 years were obtained from the Lions Eye Bank of Texas (Houston, Tex.). Corneal epithelial cells were grown from limbal explants. In brief, after carefully removing the central cornea, excess conjunctiva and iris and corneal endothelium, the limbal rim was cut into 12 equal pieces (about 2×2 mm size each). Two of these pieces were placed epithelial side up into each well of 6-well culture plates, and each explant was covered with a drop of fetal bovine serum (FBS) overnight. […]
as §3, with “Ill.). […]” for “Ill.).”
The beads were washed and mixed with biotinylated specific reporter antibodies for phospho-MAPK or total-MAPK, followed by streptavidin-phycoerythrin. The amount of total or phospho-MAPK was then quantified by the Luminex 100™ system (Luminex, Austin, Tex.). […]

SMILES | TEER (as % of isotonic control) at 22 hours [1] [%] | % TEER relative to the isotonic control, response to concentration [1] | levels of JNK1 and JNK2 in 300 mOsmols/kg cultures [2] | JNK activation (levels of JNK1 and JNK2, Western blot intensity) compared to 400 mOsmols/kg media alone [2] | amount of phospho-total JNK relative to the hypertonic control [3] | amount of ERK relative to the hypertonic control [4] | component compatibility with stabilized chlorine dioxide (Purite7) preservative [5] | amount of phospho-total p38 relative to the hypertonic control [6] | osmoprotective benefit (TEER relative to the hypertonic control), in words [1]
C[N+](C)(C)CC(=O)O [Betaine, betaine (trimethyl glycine)] | 53.3 | dose-related response | less robust effect | definite decrease | reduced | did not | not fully compatible | exception | –
C[N+](C)(C)C[C@H](O)CC(=O)[O-] [Carnitine] | 118.9 | dose-related response | less robust effect | definite decrease | reduced | did not | – | – | most benefit
OC[C@@H](O)[C@@H](O)CO [Erythritol] | 107.4 | dose-related response | – | no effect | reduced | reduced | – | – | best results among the polyols tested
O[C@H]1[C@H](O)[C@@H](O)[C@H](O)[C@@H](O)[C@H]1O [Myo-Inositol] | 74.8 | – | – | – | – | – | – | – | good results
NCCS(=O)(=O)O [Taurine] | 39.8 | – | – | – | – | – | – | – | –
OC[C@@H](O)[C@H](O)[C@@H](O)CO [Xylitol] | 94.1 | – | – | no effect | reduced | reduced | – | – | good results
